Assay results taken from patent publication US12171766B2, “Methods of treating patients suffering from brain injury and methods of increasing the value of the extended Glasgow Outcome Scale of patients suffering from brain injury” (VERINOS OPERATIONS GMBH, priority 2021, dated 2024).

Experiment: NOSTRA phase III trial: exposure control (pharmacokinetics), samples after end of infusion and 12 hours after end of infusion
Assay type: in vivo, human
Conditions: TBI patients
Protocol: An exposure control was performed with samples collected after end of infusion and 12 hours after end of infusion. Due to the high sensibility of Ronopterin to oxidation, no utilizable values could be obtained for Ronopterin and, therefore, the first metabolite, 4-amino-dihydrobiopterin, was used as a surrogate. The mean absolute concentration for the first metabolite of Ronopterin was 1071 ng/mL at the end of the infusion and 476 ng/mL 12 hours later (56% elimination). The mean absolute value for the second Ronopterin metabolite was 52 ng/mL at the end of the infusion and 37 ng/mL 12 hours after end of infusion.

[1] = Ronopterin 17 mg/kg infused for 48 hours

elimination within 12 hours after end of infusion: 56%
mean absolute concentration 12 hours after end of infusion [1]: 476 ng/mL
mean absolute concentration at the end of the infusion [1]: 1071 ng/mL
Compound: C[C@H](O)[C@H](O)C1=Nc2c(N)nc(N)nc2NC1 [4-amino-dihydrobiopterin]
